Activity calls are given as the source filed them. The rule behind the calls is not given here.
Legend:
[1] = tested on: SARS-CoV-2; settings: dose 30 mg/kg; route po; time 4 day
[2] = tested on: SARS-CoV-2; settings: dose 60 mg/kg; route po; time 4 day
[3] = tested on: SARS-CoV-2; settings: dose 60 mg/kg; route po; time 4 day; remark: listed apart in the source
[4] = tested on: SARS-CoV-2; settings: dose 30 mg/kg; route po; time 4 day; remark: listed apart in the source
[5] = tested on: SARS-CoV-2; settings: dose 60 mg/kg; route po; time 2 day
[6] = tested on: SARS-CoV-2; format: functional, organism-based; settings: Severe acute respiratory syndrome coronavirus 2; MA10; dose 60.0 mg/kg, route po, time 2-5 day
[7] = tested on: SARS-CoV-2; format: functional, organism-based; settings: Severe acute respiratory syndrome coronavirus 2; MA10; dose 30.0 mg/kg, route po, time 2-5 day
[8] = tested on: SARS-CoV-2; format: functional, organism-based; settings: Severe acute respiratory syndrome coronavirus 2; MA10; dose 60.0 mg/kg, route po, time 5.0 day
[9] = tested on: SARS-CoV-2; settings: dose 30 mg/kg; route po; time 5 day
[10] = tested on: SARS-CoV-2; format: functional, organism-based; settings: Severe acute respiratory syndrome coronavirus 2; MA10; dose 60.0 mg/kg, route po, time 2-5 day; remark: listed apart in the source
[11] = tested on: SARS-CoV-2; format: functional, organism-based; settings: Severe acute respiratory syndrome coronavirus 2; MA10; dose 60.0 mg/kg, route po, time 3-5 day
[12] = tested on: SARS-CoV-2; format: functional, organism-based; settings: Severe acute respiratory syndrome coronavirus 2; MA10; dose 30.0 mg/kg, route po, time 2-5 day; remark: listed apart in the source
[13] = tested on: SARS-CoV-2; format: functional, organism-based; settings: Severe acute respiratory syndrome coronavirus 2; MA10; Pneumocyte; dose 30.0 mg/kg, route po, time 2-5 day
[14] = tested on: SARS-CoV-2; format: functional, organism-based; settings: Severe acute respiratory syndrome coronavirus 2; MA10; dose 60.0 mg/kg, route po, time 2-5 day; remark: listed apart in the source
[15] = tested on: SARS-CoV-2; format: functional, organism-based; settings: Severe acute respiratory syndrome coronavirus 2; MA10; dose 30.0 mg/kg, route po, time 2-5 day; remark: listed apart in the source
[16] = tested on: SARS-CoV-2; format: functional, organism-based; settings: Severe acute respiratory syndrome coronavirus 2; MA10; dose 30.0 mg/kg, route po, time 2-5 day; remark: listed apart in the source
[17] = tested on: SARS-CoV-2; format: functional, organism-based; settings: Severe acute respiratory syndrome coronavirus 2; MA10; dose 60.0 mg/kg, route po, time 2-5 day; remark: listed apart in the source
[18] = tested on: SARS-CoV-2; format: functional, organism-based; settings: Severe acute respiratory syndrome coronavirus 2; MA10; dose 30.0 mg/kg, route po, time 2-5 day; remark: listed apart in the source
[19] = tested on: SARS-CoV-2; format: functional, organism-based; settings: Severe acute respiratory syndrome coronavirus 2; MA10; dose 30.0 mg/kg, route po, time 2-5 day; remark: listed apart in the source
[20] = tested on: SARS-CoV-2; format: functional, organism-based; settings: Severe acute respiratory syndrome coronavirus 2; MA10; Pneumocyte; dose 60.0 mg/kg, route po, time 2-5 day
[21] = tested on: SARS-CoV-2; format: functional, organism-based; settings: Severe acute respiratory syndrome coronavirus 2; MA10; dose 60.0 mg/kg, route po, time 2-5 day; remark: listed apart in the source
[22] = tested on: SARS-CoV-2; format: functional, organism-based; settings: Severe acute respiratory syndrome coronavirus 2; MA10; dose 30.0 mg/kg, route po, time 2-5 day; remark: listed apart in the source
[23] = tested on: SARS-CoV-2; format: functional, organism-based; settings: Severe acute respiratory syndrome coronavirus 2; MA10; Pneumocyte; dose 60.0 mg/kg, route po, time 2-5 day; remark: listed apart in the source
[24] = tested on: SARS-CoV-2; settings: dose 60 mg/kg; route po; time 5 day
[25] = tested on: SARS-CoV-2; format: functional, organism-based; settings: Severe acute respiratory syndrome coronavirus 2; MA10; dose 30.0 mg/kg, route po, time 2-5 day; remark: listed apart in the source
[26] = tested on: SARS-CoV-2; format: functional, organism-based; settings: Severe acute respiratory syndrome coronavirus 2; MA10; dose 60.0 mg/kg, route po, time 2-5 day; remark: listed apart in the source
[27] = tested on: SARS-CoV-2; format: functional, organism-based; settings: Severe acute respiratory syndrome coronavirus 2; MA10; dose 60.0 mg/kg, route po, time 2-5 day; remark: listed apart in the source
[28] = tested on: SARS-CoV-2; format: functional, organism-based; settings: Severe acute respiratory syndrome coronavirus 2; MA10; dose 60.0 mg/kg, route po, time 2-5 day; remark: listed apart in the source
[29] = tested on: SARS-CoV-2; format: functional, organism-based; settings: Severe acute respiratory syndrome coronavirus 2; MA10; dose 30.0 mg/kg, route po, time 2.0 day
[30] = tested on: SARS-CoV-2; settings: dose 30 mg/kg; route po; time 5 day; remark: listed apart in the source
[31] = tested on: SARS-CoV-2; format: functional, organism-based; settings: Severe acute respiratory syndrome coronavirus 2; MA10; dose 30.0 mg/kg, route po, time 5.0 day
[32] = tested on: SARS-CoV-2; format: functional, organism-based; settings: Severe acute respiratory syndrome coronavirus 2; MA10; dose 30.0 mg/kg, route po, time 2-5 day; remark: listed apart in the source
[33] = tested on: SARS-CoV-2; format: functional, organism-based; settings: Severe acute respiratory syndrome coronavirus 2; MA10; dose 60.0 mg/kg, route po, time 2-5 day; remark: listed apart in the source
[34] = tested on: SARS-CoV-2; format: functional, organism-based; settings: Severe acute respiratory syndrome coronavirus 2; MA10; dose 30.0 mg/kg, route po, time 2-5 day; remark: listed apart in the source
[35] = tested on: SARS-CoV-2; format: functional, organism-based; settings: Severe acute respiratory syndrome coronavirus 2; MA10; Pneumocyte; dose 30.0 mg/kg, route po, time 2-5 day; remark: listed apart in the source

Q: How did the “log(activity)” value [1] turn out when `CC(C)C(=O)OC[C@H]1O[C@@](C#N)(c2ccc3c(N)ncnn23)[C@H](OC(=O)C(C)C)[C@@H]1OC(=O)C(C)C` was run?
A: The value was >2.9.

Q: What about the “log(activity)” value [2] of the same molecule?
A: Its value is >2.9.

Q: For `CC(C)C(=O)OC[C@H]1O[C@@H](n2cc/c(=N\O)[nH]c2=O)[C@H](O)[C@@H]1O` [MOLNUPIRAVIR], which “log(activity)” value [3] is on record?
A: The value was 2.9.

Q: What about the “log(activity)” value [2] of the same molecule?
A: Its value is 2.6.

Q: And the “log(activity)” value [4]?
A: The value was 2.1.

Q: How did the “log(activity)” value [5] turn out when `CCCCCCCCCCCCCCCCCCOC[C@H](COP(=O)(O)OC[C@H]1O[C@@](C#N)(c2ccc3c(N)ncnn23)[C@H](O)[C@@H]1O)OCc1ccccc1` was run?
A: Its value is 1.52.

Q: And the Activity [6]?
A: Its Activity is “inactive”.

Q: And the Activity [7]?
A: Its Activity is “inactive”.

Q: And the Activity [8]?
A: The Activity was “Active”.

Q: What about the “log(activity)” value [9] of the same molecule?
A: Its value is >2.14.

Q: What about the Activity [10] of the same molecule?
A: The Activity was “inactive”.

Q: And the Activity [11]?
A: Its Activity is “Active”.

Q: And the Activity [12]?
A: Its Activity is “inactive”.

Q: What about the Activity [13] of the same molecule?
A: Its Activity is “inactive”.

Q: And the Activity [14]?
A: Its Activity is “inactive”.

Q: And the Activity [15]?
A: Its Activity is “inactive”.

Q: What about the Activity [16] of the same molecule?
A: Its Activity is “inactive”.

Q: What about the Activity [17] of the same molecule?
A: Its Activity is “inactive”.

Q: And the Activity [18]?
A: Its Activity is “inactive”.

Q: And the Activity [19]?
A: Its Activity is “inactive”.

Q: What about the Activity [20] of the same molecule?
A: The Activity was “inactive”.

Q: What about the Activity [21] of the same molecule?
A: The Activity was “inactive”.

Q: What about the Activity [22] of the same molecule?
A: Its Activity is “inactive”.

Q: And the Activity [23]?
A: The Activity was “inactive”.

Q: And the “log(activity)” value [24]?
A: The value was >2.14.

Q: What about the Activity [25] of the same molecule?
A: The Activity was “inactive”.

Q: What about the Activity [26] of the same molecule?
A: The Activity was “inactive”.

Q: And the Activity [27]?
A: The Activity was “inactive”.

Q: What about the Activity [28] of the same molecule?
A: The Activity was “inactive”.

Q: What about the Activity [29] of the same molecule?
A: Its Activity is “Active”.

Q: What about the “log(activity)” value [30] of the same molecule?
A: Its value is >2.14.

Q: What about the Activity [31] of the same molecule?
A: The Activity was “inactive”.

Q: What about the Activity [32] of the same molecule?
A: Its Activity is “inactive”.

Q: What about the Activity [33] of the same molecule?
A: The Activity was “inactive”.

Q: What about the Activity [34] of the same molecule?
A: Its Activity is “inactive”.

Q: And the Activity [35]?
A: The Activity was “inactive”.

From ChEMBL document CHEMBL5380858 (J Med Chem, 2023)
